# Assay results published in patent US7906620B2, “Tumor associated antigen, peptides thereof, and use of same as anti-tumor vaccines” (Yeda Research and Development Co. Ltd., priority 2002, dated 2011).
# Assays:
# EL-4-HHD target cells = assay: Immunogenicity in HHD mice after immunization with single peptide-loaded RMAS-HHD-B7.1 cells; format: in vivo; details: single peptide immunization i.p. three times; E:T 100:1 to 12.5:1
# Description: FIGS. 14A and 14B are graphs showing immunogenicity of PAP-3 (FIG. 14A) and STEAP-3 (FIG. 14B) peptides in HHD mice. Mice immunized i.p. three times at 7-day intervals, with 2×10^6 irradiated (5000 rad) were single peptide-loaded (PAP-3 for FIG. 14A, STEAP-3 for FIG. 14B) TAP-2 deficient RMAS-HHD-B7.1 cells. Spleens were removed on day 10, and splenocytes were restimulated in vitro by 100 μM PAP-3 or STEAP-3 peptides in OPTIMEM for 2 h at 37° C., 5% CO2, followed by restimulation of lymphocytes for 4 more days in RPMI-HEPES, as described. CTL assays were performed on day 5 with PAP-3 or STEAP-3 loaded on EL4-HHD as targets. Unloaded EL4-HHD or non-relevant HIV derived peptide-loaded EL4-HHD cells were used as negative controls. The effector-to-target ratios of 100:1; 50:1; 25:1; 12.5:1 are shown.
# The immunogenicity of the peptides, namely their potential to induce T cell responses, was subsequently examined in an in vivo model. A strain of β2 microglobulin (β2m) HLA-A2.1 Monochain Transgenic, H-2D^b−/−Xβ2m^−/− double knockout mice (HHD mice) was used. Upon vaccination of these mice, a repertoire of human HLA-A2.1 restricted CTLs is produced. The lysis patterns of each of the individual peptides loaded on target cells were first evaluated following immunization with syngeneic dendritic cells pulsed with pools of 2-4 synthetic peptides derived from each examined protein.
# LNCaP = assay: Lysis of LNCaP tumor cells by human anti-peptide CTL; format: cell-based; details: LNCaP high and low HLA expressors as targets
# Excerpt: FIGS. 18A-18E are graphs showing that human anti-peptide CTL from a healthy donor kills LNCaP tumor cells. PBMC from a healthy donor (FIGS. 18A-18C) or a CaP patient (FIGS. 18D-18E) were stimulated with PAP-3 (FIGS. 18A, 18D), STEAP-3 (FIGS. 18B, 18E) or PSGR-1 (FIG. 18C) as described. LNCaP/CRL1740 (LNCaP high in HLA-A2.1 expression), LNCaP/CRL10995 (LNCaP low in HLA-A2.1 expression) and PC3 (negative for HLA-A2.1) served as targets in CTL assays.
# When human PBMC are stimulated in vitro by PAP-3 and STEAP-3 peptides, the resulting CTL can lyse target cells (T2, EL4/HHD) pulsed with PAP-3, STEAP-3 or PSGR-1 and PSGR-6 peptides. (FIGS. 15 and 16). Here, these findings were expanded and peripheral blood of three healthy and two CaP individuals was tested for the existence of CTL precursors against PAP-3, STEAP-3 and PSGR-1 peptides. Leukopheresis products of the donors were obtained from Barzilai Medical Center (Ashkelon, Israel) according to Declaration of Helsinki Principles. PBMC were isolated by centrifugation on Ficoll-Plaque Plus gradients (Amersham, Sweden). In vitro priming of CTL was done over autologous DC that were prepared from monocytes by IL-4 and GM-CSF treatment and matured with a IL-1β, IL-6, TNF-α and PGE2 cocktail. DC were pulsed with synthetic peptides and PBMC were supplemented with IL-7. Two days later, IL-2 was added and renewed every three days. Two additional re-stimulations were done every 7 days over peptide pulsed monocytes. Seven days after the third stimulation, lymphocytes were harvested and a cytolytic assay was performed using relevant/non-relevant peptide pulsed or non-pulsed T2 cells (FIGS. 17A-17C) and LNCaP (high and low HLA expressors) cells as targets (FIGS. 18A-18E). […] Monitoring of HLA-A2-peptide specific CD8+ cells for PAP-3 and STEAP-3 was also performed by MHC-peptide tetramers (tetramers of recombinant HLA-A2.1-beta2 microglobulin single chain with peptides were prepared in collaboration with Dr Yoram Reiter, Technion, Haifa). […]
# [1] = test system: HLA-A2-peptide specific CD8+ cells; assay: MHC-peptide tetramer monitoring of HLA-A2-peptide specific CD8+ cells; format: cell-based, human; details: stimulated PBMC, MHC-peptide tetramers
# PC3-HHD tumors = assay: Adoptive transfer of anti-peptide CTL to CD1 nude mice bearing PC3-HHD tumors; format: in vivo; details: for complete rejection of tumors: local injection day 7, PAP-3: 35×10^6 lymphocytes (11×10^6 CD8+), STEAP-3: 50×10^6 (3×10^6 CD8+), IL-2; for tumor growth in the other mice: same groups as complete rejection
# Excerpt: FIGS. 19A and 19B are graphs showing that adoptively transferred anti-peptide CTL retard tumor growth. HHD derived anti-PAP3 (FIG. 19A) or STEAP-3 (FIG. 19B) were stimulated in vitro and transferred to CD1 nude mice bearing 7 day PC3-HHD tumors (expressing PAP and STEAP) as described. Tumor growth was followed for 38 days.
# HHD mice were immunized i.p. 6 times (twice at week) with 10^6 syngeneic dendritic cells pulsed with either PAP-3, STEAP-3 or irrelevant (tyrosinase-derived, HLA-A2.1 binding) peptides. Spleens were removed on day 10, and splenocytes were restimulated in vitro by 100 μM of either PAP-3 or STEAP-3 peptides in OPTIMEM for 2 h at 37° C., 5% CO2, followed by restimulation of lymphocytes for 4 more days in lymphocyte medium (RPMI-1640 supplemented with 25 mM HEPES, 10% heat-inactivated FCS, 0.1 mM non-essential amino acids, 1 mM sodium pyruvate, 2 mM. L-glutamine, 40 microg/ml garamycin and 5×10^−5 M 2-mercaptoethanol). Total lymphocytes were suspended at 10^6/ml and activated with plate-bound anti-CD3 mAb (145-2C11) for 72 h at 37° C. in 5% CO2 in 24-well plates. Activated cells were resuspended at a concentration of 3×10^5/ml lymphocyte medium with IL-2 (100 U/ml) for 3 days, then diluted 1:3 in fresh medium with IL-2 for an additional 4 days. Lymphocytes were harvested, samples were incubated with anti-CD4, anti-CD8 or isotype control mAb (all obtained from Catalog, USA), and analyzed using CellQuest software. Seven to nine CD1 nude mice per group received 4 Gy total body irradiation from a 137CS source, followed by s.c. inoculation with 5×10^6 PC3-HHD13 cells in Matrigel (BD PharMingen, San Diego, Calif.) to initiate tumors. Seven days later, mice were injected locally with 35×10^6 PAP-3 or tyrosinase specific lymphocytes (11×10^6 were CD8+), 50×10^6 STEAP-3 specific lymphocytes (3×10^6 were CD8+) or PBS. IL-2 (1000 U) was injected twice a day for five consecutive days. Tumor size was measured 3 times per week.
Sequence,lysis of peptide-loaded EL-4-HHD target cells (EL-4-HHD target cells),lysis of tumor cells expressing endogenously processed proteins (LNCaP),Levels of HLA-A2-peptide specific CD8+ cells [1] [%],complete rejection of tumors (PC3-HHD tumors),tumor growth in the other mice (PC3-HHD tumors)
"ILLWQPIPV (listed as Homo sapiens) [PAP-3, PAP start position 135]",remarkable and dose-dependent lysis,lyse tumor cells,1.7,4/8,retarded growth
"LLLGTIHAL (listed as Homo sapiens) [STEAP-3, STEAP start position 262]",remarkable and dose-dependent lysis,lyse tumor cells,0.76,2/9,retarded growth
